Experimental findings from patent US9145411B2, “Substituted amino-pyrimidine derivatives” (Asana Biosciences, LLC, priority 2012, dated 2015) are described below.

For test [1], the target named is PI3 kinase isoform β (Homo sapiens, UniProt P42338). The experiment in a line: PI3 Kinase TR-FRET assay, isoform β. Particulars: read-out: inhibition of PI3 kinase isoform β, IC50. The test is classed as biochemical. How it is done: The ability of compounds of the invention to inhibit PI3K activity was determined in a homogeneous TR-FRET assay using a PI3K assay kit (Millipore, USA; cat #33-016) according to manufacturer's instructions. PI3-Kinases (isoforms α, β, γ and δ) catalyze the phosphorylation of phosphatidylinositol, PIP2 to PIP3 in the presence of ATP and Mg^2+. The PIP3 product is detected by displacement of biotin-PIP3 from an energy transfer complex consisting of Europium labeled anti-GST monoclonal antibody, a GST-tagged PH domain, biotinylated PIP3 and Streptavidin-APC. Excitation of Europium in the complex results in an energy transfer to the APC and a fluorescence emission at 665 nm. The PIP3 product displaces biotin-PIP3 from the complex resulting in a loss of energy transfer and thus a decrease in signal.
To test for the ability of compounds to inhibit the activity of PI3Kα (wild-type), exemplary compounds of formula (I) were dissolved in DMSO and directly distributed into 384-well plates at a volume of 0.5 μL. […] Fluorescence was measured at 615 and 665 nm upon excitation at 340 nm in a Victor™ V5 fluorometer (Perkin Elmer, USA). The fluorescence emission ratio at 665 to 615 nm, proportional to the kinase activity, was plotted against the compound concentration to generate dose-response curves and IC50 values were determined using GraphPad Prism® 5 software. […]

Test [2] has as its system U87MG cells. Briefly: XTT assay for cell viability, U87MG cells. To be noted: Homo sapiens, U-87 MG, read-out: inhibition of U87MG cell proliferation, IC50. The test is classed as cell-based. As for the experimental part: (§1) Using a commercial kit from Sigma Aldrich (Catalog #X34251) and following its protocol, PC3 cells in the log phase of growth were employed and seeded at an optimal density of 1000 cell/well on to 96 well plates and incubated for 24 hours followed by the addition of compounds of formula (I) in serial dilutions. Compound dilutions were made in DMSO. The cells were incubated with the compounds of formula (I) for 96 hours and XTT tetrazolium dye (Sigma, USA) was subsequently added and incubated at 37° C. After the color formation, absorbance was measured at 465 nm in a Spectramax® Gemini spectrophotometer. EC50 values were calculated using a sigmoidal dose response curve fit in GraphPad Prism® v5 software. The tested compounds of formula (I) which caused inhibition of PC3 cell proliferation as determined by this assay protocol are shown in Table 2.
(§2) XTT assays for cell viability were also determined in U87MG, BT474 cells and T47D cells, in a similar manner to the protocol described above. The compounds cause inhibition of U87MG, BT474 and T47D cell proliferation as determined by these assays. For example, the compounds of Examples 3 and 7 caused inhibition of U87MG, BT474 and T47D cell proliferation with IC50 values<600 nM.
(Formazan colour is commonly taken as a measure of viable cells.)

Test [3] concerns T47D cells. Briefly: XTT assay for cell viability, T47D cells. Particulars: Homo sapiens, read-out: inhibition of T47D cell proliferation, IC50. The test is classed as cell-based. As for the experimental part:
as §1, §2

The test system of test [4] is PC3 cells. The experiment in a line: In vivo efficacy study (tumor growth suppression), PC3 xenograft. Particulars: athymic male mice, after 14 days of dosing at 50 mg/kg qd po. How it is done:
PC3 cells were cultured at 37° C. in a 5% CO2 incubator using Hams F12 K medium. Five million (5×10^6) cells were implanted subcutaneously to the right flank of athymic male mice (Harlan, age: 6-7 weeks, weight: about 20 g). Tumor bearing mice were randomized when the tumor volume reached about 100 mm^3 Ten mice were used per group. Compounds of formula (I) were typically formulated using HPCD in PBS, pH 7.4 or in 10% Ethanol/40% Solutol/50% 50 mM aq. methanesulfonic acid and dosed orally (dose volume, 10 mL/kg). Solutions of the compounds were prepared immediately before dosing the animals. A vehicle control and a reference compound were included along with test compounds.
The tumor size was measured on alternate days using Vernier® calipers. Assuming tumors to be ellipsoid, the tumor volume was calculated using the formula: V=(D×d^2)/2 • where: • V (mm^3) is tumor volume • D is longest diameter in mm • d is shortest diameter in mm.
Changes in tumor volume (Δ volumes) for each treated (T) and control (C) group were calculated by subtracting the mean tumor volume on the first day of treatment (starting day) from the mean tumor volume on the specified observation day. […]
Percentage tumor growth inhibition was calculated as [100−% T/C]. Percentage body weight change was calculated as [(Body weight on specified observation day−Body weight on starting day)/Body weight on starting day]×100. […]

Where only a bound is given, the exact number is not on record here.

Chain of PI3 kinase isoform β (P42338 whole entry, the tested form may be a part, canonical isoform): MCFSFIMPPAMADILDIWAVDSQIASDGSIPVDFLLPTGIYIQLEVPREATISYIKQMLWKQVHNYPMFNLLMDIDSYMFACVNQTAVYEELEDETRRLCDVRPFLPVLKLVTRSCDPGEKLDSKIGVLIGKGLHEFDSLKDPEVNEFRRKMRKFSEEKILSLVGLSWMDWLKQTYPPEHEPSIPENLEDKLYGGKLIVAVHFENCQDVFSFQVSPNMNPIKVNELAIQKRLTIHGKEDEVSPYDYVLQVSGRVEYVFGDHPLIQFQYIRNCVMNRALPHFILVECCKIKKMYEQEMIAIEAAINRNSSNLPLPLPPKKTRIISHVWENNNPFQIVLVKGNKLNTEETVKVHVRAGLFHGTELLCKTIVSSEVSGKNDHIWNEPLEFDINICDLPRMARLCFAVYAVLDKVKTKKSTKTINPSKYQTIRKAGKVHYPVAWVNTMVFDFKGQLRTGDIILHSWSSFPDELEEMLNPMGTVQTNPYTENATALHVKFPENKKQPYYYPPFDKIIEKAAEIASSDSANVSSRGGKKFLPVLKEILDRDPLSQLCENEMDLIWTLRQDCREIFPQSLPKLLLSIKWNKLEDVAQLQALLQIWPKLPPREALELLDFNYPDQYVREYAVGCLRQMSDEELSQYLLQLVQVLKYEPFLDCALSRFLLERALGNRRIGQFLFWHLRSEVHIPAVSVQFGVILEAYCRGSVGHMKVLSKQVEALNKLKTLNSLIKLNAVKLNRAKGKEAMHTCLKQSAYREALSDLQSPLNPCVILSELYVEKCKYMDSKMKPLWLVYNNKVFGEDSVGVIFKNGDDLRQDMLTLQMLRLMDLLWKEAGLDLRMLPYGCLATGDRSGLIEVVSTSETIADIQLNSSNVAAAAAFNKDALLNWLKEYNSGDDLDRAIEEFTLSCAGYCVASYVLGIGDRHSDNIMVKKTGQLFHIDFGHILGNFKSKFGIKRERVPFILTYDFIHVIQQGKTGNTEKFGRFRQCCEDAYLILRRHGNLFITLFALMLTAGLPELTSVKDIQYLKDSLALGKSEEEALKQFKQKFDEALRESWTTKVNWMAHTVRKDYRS
Chain of PI3 kinase isoform β (P27986 whole entry partner, the tested form may be a part, canonical isoform): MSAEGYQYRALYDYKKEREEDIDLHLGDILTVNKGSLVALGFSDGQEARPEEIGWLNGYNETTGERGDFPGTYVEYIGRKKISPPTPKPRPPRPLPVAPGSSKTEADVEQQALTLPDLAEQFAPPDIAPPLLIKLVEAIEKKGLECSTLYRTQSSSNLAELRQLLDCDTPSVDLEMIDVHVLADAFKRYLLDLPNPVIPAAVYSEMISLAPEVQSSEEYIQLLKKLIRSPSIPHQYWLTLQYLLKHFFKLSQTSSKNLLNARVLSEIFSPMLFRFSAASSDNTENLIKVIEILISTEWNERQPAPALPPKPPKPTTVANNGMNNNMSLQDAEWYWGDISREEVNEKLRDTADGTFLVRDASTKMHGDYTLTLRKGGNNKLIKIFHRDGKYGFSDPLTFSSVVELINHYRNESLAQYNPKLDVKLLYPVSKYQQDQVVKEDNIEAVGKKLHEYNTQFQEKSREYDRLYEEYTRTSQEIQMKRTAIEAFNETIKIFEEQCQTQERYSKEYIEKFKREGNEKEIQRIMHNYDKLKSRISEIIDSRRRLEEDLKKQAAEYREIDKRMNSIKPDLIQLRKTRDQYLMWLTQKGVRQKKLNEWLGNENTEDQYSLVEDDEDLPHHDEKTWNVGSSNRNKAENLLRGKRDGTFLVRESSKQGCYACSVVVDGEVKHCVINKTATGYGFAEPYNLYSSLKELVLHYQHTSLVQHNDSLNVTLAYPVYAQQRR

On to `CC(=O)Nc1cccc(-c2cnc3c(N4CCOCC4)nc(-c4cnc(N)nc4)nc3c2)c1` [Example 3, N-(3-(2-(2-Aminopyrimidin-5-yl)-4-morpholinopyrido[3,2-d]pyrimidin-7-yl)-phenyl)acetamide], for which the IC50 is under 500 nM in test [1], under 600 nM in test [2] and under 600 nM in test [3]. Besides, the “tumor growth inhibition relative to vehicle control group” value in test [4] is listed as “more than 40%”.
With `Nc1ncc(-c2nc(N3CCOCC3)c3ncc(-c4cccc(NC(=O)C5CC5)c4)cc3n2)cn1` [Example 7, N-(3-(2-(2-Aminopyrimidin-5-yl)-4-morpholinopyrido[3,2-d]pyrimidin-7-yl)-phenyl)cyclopropanecarboxamide], the IC50 in test [2] and in test [3] was under 600 nM throughout.
